Measured values reported in patent publication US10501447B2, “Imidazolecarboxamides and their use as FAAH inhibitors” (BIAL-PORTELA & Ca, S.A., priority 2013, dated 2019).

Tests used:
FAAH [1] = target: T1, FAAH (Mus musculus, UniProt O08914); experiment: FAAH activity in brain homogenate after oral dosing of mice; assay type: in vivo; conditions: 8 h, remaining activity vs controls, low value = strong inhibitor, read-out: FAAH Activity (%) Br h
T1 construct: A fragment of liver and brain without cerebellum were removed and put in plastic vials containing membrane buffer; from tissue; host or cells: brain (without cerebellum) and liver homogenates of male NMRI mice
T1 sequence (O08914 1-579): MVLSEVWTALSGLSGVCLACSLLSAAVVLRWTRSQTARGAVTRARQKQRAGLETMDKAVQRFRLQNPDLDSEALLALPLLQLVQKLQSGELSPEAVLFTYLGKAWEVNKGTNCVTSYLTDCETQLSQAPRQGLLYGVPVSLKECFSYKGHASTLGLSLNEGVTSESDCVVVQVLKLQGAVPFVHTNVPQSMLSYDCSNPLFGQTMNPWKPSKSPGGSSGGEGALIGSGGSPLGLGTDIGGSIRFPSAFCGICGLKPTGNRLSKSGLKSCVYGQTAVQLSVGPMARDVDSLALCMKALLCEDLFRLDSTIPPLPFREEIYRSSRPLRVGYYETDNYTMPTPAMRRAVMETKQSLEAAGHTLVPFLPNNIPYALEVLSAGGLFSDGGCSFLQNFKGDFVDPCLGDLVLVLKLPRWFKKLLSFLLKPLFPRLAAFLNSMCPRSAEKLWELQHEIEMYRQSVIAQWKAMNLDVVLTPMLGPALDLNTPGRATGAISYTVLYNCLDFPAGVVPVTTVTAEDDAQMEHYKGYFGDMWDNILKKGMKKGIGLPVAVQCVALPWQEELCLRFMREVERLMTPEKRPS
Method: (§1) In vivo testing was performed according to the protocol described below. BRh (brain homogenate) indicates inhibition in central nervous tissue, in this case, brain, and LVh (liver homogenate) indicates inhibition in peripheral tissue, in this case, liver. The controls were the reaction mix minus the test compounds. Therefore, a low value for the test compound indicates a strong inhibitor.
(§2) The animals used for experiments were male NMRI mice (weighing 27-44 g) obtained from Interfauna Ibérica (Spain). Mice were kept 5 per cage, under controlled environmental conditions (12 hr light/dark cycle and room temperature 22±1° C.). Food and tap water were allowed ad libitum and the experiments were all carried out during daylight hours.
(§3) Animals were always fasted overnight before administration of compounds.
(§4) Animals were administered the appropriate dose of the compound of the invention via oral route (8 ml/kg; compound suspended in 0.5% carboxymethylcellulose (CMC) or solubilized in water) or vehicle (controls) using animal feeding stainless steel curve needles (Perfectum, U.S.A.). Fifteen minutes before sacrifice animal were anesthetized with pentobarbital 60 mg/kg administered intraperitoneally. A fragment of liver and brain without cerebellum were removed and put in plastic vials containing membrane buffer (3 mM MgCl2, 1 mM EDTA, 50 mM Tris HCl pH 7.4). Tissues were stored at −30° C. until analysis.
Anandamide [ethanolamine-1-^3H-] (40-60 Ci/mmol) was obtained from American Radiochemicals. All other reagents were obtained from Sigma-Aldrich. […]
(§5) Total protein in tissues was determined with the BioRad Protein Assay (BioRad) using a standard curve of BSA (50-250 μg/ml).
Reaction mix (total volume of 200 μl) contained: 2 μM AEA (2 μM AEA+5 nM ^3H-AEA), 0.1% fatty acid free BSA, 15 μg (brain) or 5 μg (liver) protein, in 1 mM EDTA, 10 mM Tris pH 7.6. […] Counts per minute (cpm) were determined in a MicrobetaTriLux scintillation counter. […]
(§6) The percentage of remaining enzymatic activity was calculated with respect to controls and after blank subtraction.

FAAH [2] = target: T1, FAAH; experiment: FAAH activity in liver homogenate after oral dosing of mice; assay type: in vivo; conditions: for Peripheral Selectivity: FAAH activity in the liver divided by FAAH activity in the brain (3 mg/kg, 8 h, po), lower = peripherally more selective; for activity at 1 mg/kg / activity at 0.3 mg/kg / activity at 3 mg/kg / activity at 0.1 mg/kg / activity at 0.01 mg/kg / activity at 0.03 mg/kg: mouse, po; for activity at 3 mg/kg: liver homogenate, remaining activity vs controls, read-out: FAAH Activity (%) Lv h
Method: as §1, §2, §3, §4
Anandamide [ethanolamine-1-^3H-] (40-60 Ci/mmol) was obtained from American Radiochemicals. All other reagents were obtained from Sigma-Aldrich. Optiphase Supermix was obtained from Perkin Elmer and activated charcoal was obtained from Sigma-Aldrich.
Tissues were thawed on ice and were homogenized in 10 volumes of membrane buffer (3 mM MgCl2, 1 mM EDTA, 50 mM Tris HCl pH 7.4) with either Potter-Elvejhem (brains—8 strokes at 500 rpm) or Heidolph Diax (livers—2 strokes at position 5 for 20 sec with 30 sec pauses).
as §5
Reaction mix (total volume of 200 μl) contained: 2 μM AEA (2 μM AEA+5 nM ^3H-AEA), 0.1% fatty acid free BSA, 15 μg (brain) or 5 μg (liver) protein, in 1 mM EDTA, 10 mM Tris pH 7.6. After a 15 min pre-incubation period at 37° C., reaction was started by the addition of the substrate solution (cold AEA+radiolabelled AEA+BSA). Reaction was carried out for 10 min (brain) or 7 min (liver) before termination by the addition of 400 μl activated charcoal suspension (8 g charcoal in 32 ml 0.5 M HCl in continuous agitation). After a 30 min incubation period at room temperature with agitation, charcoal was sedimented by centrifugation in microfuge (10 min at 13000 rpm). 200 μl of the supernatant were added to 800 μl Optiphase Supermix scintillation cocktail previously distributed in 24-well plates. Counts per minute (cpm) were determined in a MicrobetaTriLux scintillation counter.
In each assay blanks (without protein) were prepared.
as §6

[3] = CYPs metabolic stability assay in MLM; assay type: in vitro ADME, mouse; conditions: 1 h, 50 μM compound; for Metabolic Stability (% of Remaining) Mouse CYP+: with NADPH; for Metabolic Stability (% of Remaining) Mouse CYP−: without NADPH (control value)
Method: (§7) Stability of the test compounds was performed in MLM (mouse liver microsomes) or HLM (human liver microsomes) in the presence and in the absence of NADPH.
(§8) The stability was measured using the incubation mixture (100 μl total volume) contained 1 mg/ml total protein, MgCl2 5 mM and 50 mM K-phosphate buffer. Samples were incubated in the presence and in the absence of NADPH 1 mM. Reactions were pre-incubated 5 min and the reaction initiated with the compound under test (5 μM for HLM and 50 μM for MLM). Samples were incubated for 60 min in a shaking water bath at 37° C. The reaction was stopped by adding 100 μl of acetonitrile. Samples were then centrifuged, filtered and supernatant injected in HLPC-MSD. Test compounds were dissolved in DMSO and the final concentration of DMSO in the reaction was below 0.5% (v/v). At T0 acetonitrile was added before adding the compound. All experiments were performed with samples in duplicate.
(§9) The stability data are given as % of remaining compound after 1 h exposure to MLM or HLM. 100% means no metabolic reaction at all and 0% corresponds to full enzymatic degradation. “CYP−” refers to the absence of cofactor (NADPH) which is essential for CYP metabolic reactions. Therefore “CYP−” can be regarded as control value. “CYP+” refers to the presence of cofactor and the enzymatic degradation may take place according to the stability of the test compound.

FAAH [4] = target: T2, FAAH (Rattus norvegicus, UniProt P97612); experiment: FAAH activity in liver homogenate after oral dosing of rats; assay type: in vivo; conditions: gavage; for activity at 0.1 mg/kg: rat, po
T2 construct: Liver biopsies and brain samples (without cerebellum) were collected and placed in a plastic vial containing membrane buffer; from tissue; host or cells: liver homogenate of male Wistar rats
T2 sequence (P97612 1-579): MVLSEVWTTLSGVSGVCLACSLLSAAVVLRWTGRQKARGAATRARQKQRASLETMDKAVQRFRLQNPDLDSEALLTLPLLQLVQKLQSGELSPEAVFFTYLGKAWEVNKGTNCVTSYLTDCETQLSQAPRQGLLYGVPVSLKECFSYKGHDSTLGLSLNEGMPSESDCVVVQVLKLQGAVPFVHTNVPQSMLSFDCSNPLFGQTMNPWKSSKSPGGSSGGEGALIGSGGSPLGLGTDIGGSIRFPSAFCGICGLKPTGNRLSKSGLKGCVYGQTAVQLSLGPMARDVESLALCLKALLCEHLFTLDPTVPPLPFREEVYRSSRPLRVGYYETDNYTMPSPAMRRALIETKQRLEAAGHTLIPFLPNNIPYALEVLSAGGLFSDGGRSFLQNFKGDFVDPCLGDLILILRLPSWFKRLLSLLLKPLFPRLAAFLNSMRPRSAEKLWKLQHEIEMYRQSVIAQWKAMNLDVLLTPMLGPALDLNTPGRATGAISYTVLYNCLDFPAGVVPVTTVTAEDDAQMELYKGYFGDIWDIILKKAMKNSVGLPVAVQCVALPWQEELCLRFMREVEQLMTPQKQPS
Method: as §1
Male Wistar rats (body weight range: 190-230 g) were obtained from Harlan (Spain). Rats were kept 5 per cage, under controlled environmental conditions (12 hr light/dark cycle and room temperature 22±1° C.). Food and tap water were allowed ad libitum and the experiments were all carried out during daylight hours.
Rats were administered the appropriate dose of compound of the invention via gavage (administration volume=4 ml/kg body weight) using animal feeding stainless steel curve needles (Perfectum, U.S.A.). Vehicle was 0.5% CMC in Milli Q water. Rats were fasted at least 15 h before experiments.
Fifteen minutes before sacrifice animals were anesthetized with pentobarbital i.p. 60 mg/kg body weight. Liver biopsies and brain samples (without cerebellum) were collected and placed in a plastic vial containing membrane buffer (3 mM MgCl2, 1 mM EDTA, 50 mM Tris HCl pH 7.4) and, in the case of liver samples, glass beads (2.5 mm BioSpec Products). Tissues were stored at −20° C. until analysis.
Anandamide [ethanolamine-1-3H-] was obtained from American Radiochemicals (specific activity of 60 Ci/mmol). All other reagents were obtained from Sigma-Aldrich. Optiphase Supermix was obtained from Perkin Elmer.
Tissues were thawed on ice; livers were homogenized in a Precellys 24 Dual Tissue Homogenizer (Bertin Technologies) for 2 cycles of 5 sec with an interval of 5 min in ice and brains were homogenized with Heidolph Silent Crusher M (probe 8 F/M) for about 45 sec at maximum velocity. Total protein in homogenates was determined with the BioRad Protein Assay (BioRad) using a standard curve of BSA (50-250 μg/ml).
Reaction mix (total volume of 200 μl) contained: 2 μM AEA (2 μM AEA+5 nM 3H-AEA), 0.1% fatty acid free BSA, 15 μg (brain) or 1.5 μg (liver) protein, in 1 mM EDTA, 10 mM Tris pH 7.6. After 15 minutes pre-incubation at 37° C. reaction was started by the addition of the substrate solution (cold AEA+radiolabelled AEA+BSA). Reaction was carried out for 7 minutes for liver samples and for 10 min for brain samples and terminated by addition of 400 μL chloroform:methanol (1:1, v/v) solution. Reaction samples were vortex twice, left on ice for 5 minutes and then centrifuged in microfuge (7 minutes, 7000 rpm). Two-hundred μl of supernatants were added to 800 μl Optiphase Supermix scintillation cocktail previously distributed in 24-well plates. Counts per minute (cpm) were determined in a Microbeta TriLux scintillation counter. In each assay blank samples (without protein) were prepared. The percentage of remaining enzymatic activity was calculated in respect to controls and after blank subtraction.

[5] = CYPs metabolic stability assay in HLM; assay type: in vitro ADME, human; conditions: 1 h, 5 μM compound; for Metabolic Stability (% of Remaining) Human CYP+: with NADPH; for Metabolic Stability (% of Remaining) Human CYP−: without NADPH (control value)
Method: as §7, §8, §9

| activity at 3 mg/kg (FAAH [1]) [%] | Peripheral Selectivity (FAAH [2]) | activity at 1 mg/kg (FAAH [2]; 1 h) [%] | activity at 0.3 mg/kg (FAAH [2]; 8 h) [%] | activity at 3 mg/kg (FAAH [2]; 8 h) [%] | Metabolic Stability (% of Remaining) Mouse CYP+ [3] [%] | Metabolic Stability (% of Remaining) Mouse CYP− [3] [%] | melting point [°C] | FAAH Activity (%) rat Liver (FAAH [4]; Dose: 1 mg/k9, 1 h) [%] | FAAH Activity (%) rat Liver (FAAH [4]; Dose: 1 mg/k9, 8 h) [%] | FAAH Activity (%) rat Liver (FAAH [4]; Dose: 1 mg/k9, 24 h) [%] | Metabolic Stability (% of Remaining) Human CYP+ [5] [%] | Metabolic Stability (% of Remaining) Human CYP− [5] [%] | activity at 0.1 mg/kg (FAAH [2]; 1 h) [%] | activity at 0.01 mg/kg (FAAH [2]; 8 h) [%] | activity at 0.03 mg/kg (FAAH [2]; 8 h) [%] | activity at 0.1 mg/kg (FAAH [2]; 8 h) [%] | activity at 0.1 mg/kg (FAAH [4]; 1 h) [%] | activity at 0.1 mg/kg (FAAH [4]; 8 h) [%] | SMILES |
| --- | --- | --- | --- | --- | --- | --- | --- | --- | --- | --- | --- | --- | --- | --- | --- | --- | --- | --- | --- |
| 117 | 0.042 | 8.5 | 36.1 | 4.9 | 93 | 100 | 128 | 9.8 | 4.8 | 22.7 | 96 | 102 | – | – | – | – | – | – | CN(C(=O)n1cnc(-c2cccc(NS(N)(=O)=O)c2)c1)C1CCOCC1 [Compound 1, N-Methyl-4-(3-(sulfamoylamino)phenyl)-N-(tetrahydro-2H-pyran-4-yl)-1H-imidazole-1-carboxamide] |
| 81.7 | 0.018 | 2.3 | 5.6 | 1.5 | 86 | 83 | 232 | 25.7 | 18.2 | 17.8 | 100 | 94 | 21.9 | 48.2 | 42.9 | 6.7 | 78.2 | 59.1 | CCC(=O)N1CCC(N(C)C(=O)n2cnc(-c3ccc(O)c(C)c3)c2)CC1 [Compound 2, 4-(4-Hydroxy-3-methylphenyl)-N-methyl-N-(1-propionylpiperidin-4-yl)-1H-imidazole-1-carboxamide] |
| 91.7 | 0.020 | – | 7.2 | 1.8 | 98 | 91 | 204 | – | – | – | 99 | 102 | 37.9 | 56.3 | 53 | 10.7 | 83.5 | 62.5 | Cc1cc(-c2cn(C(=O)N(C)C3CCN(C(=O)C4CC4)CC3)cn2)ccc1O [Compound 3, N-(1-(Cyclopropanecarbonyl)piperidin-4-yl)-4-(4-hydroxy-3-methylphenyl)-N-methyl-1H-imidazole-1-carboxamide] |
